Values after ≈ are worked out from the molar mass of the structure shown.
Experiments:
[1] = Cytotoxicity, MTT assay, Jb6 Cl 41-5a normal epithelial cells; details: mouse, Jb6 Cl 41-5a normal epithelial cells
[2] = tested on: mouse neuroblastoma (Neuro 2a); assay: Cytotoxicity, MTT assay, Neuro 2a cells; details: for EC50: N2a, 24 h, read-out: Cytotoxicity (EC50), Neuro 2a; for Selectivity Index (SI), Neuro-2a: SI = EC50 (Jb6 Cl 41-5a normal cells)/EC50 (tumor cells)
B. cereus ATCC 10702 = assay: Agar diffusion method, B. cereus; assay type: cell-based, Bacillus cereus; design: key to Diameter of Zone Inhibition, B. cereus: Zones within 20–40 mm mean strong antibiotic activity; zones up to 20 mm—moderate; ≤10 mm—weak; +—insignificant; details: for zone of inhibition at 100 µg/disc / zone of inhibition at 1 µg/disc: Bacillus cereus, read-out: Diameter of Zone Inhibition, B. cereus; for zone of inhibition at 100 µg/disc: ATCC10702, 24 h, 100 µg/well, 24 h, incl. 7 mm well; for zone of inhibition at 1 µg/disc: ATCC10702, 1 µg/well; for Diameter of Zone Inhibition, B. cereus: 1 µg/well
Experimental: (§1) Elyakov Pacific Institute of Bioorganic Chemistry, Far East Branch, Russian Academy of Sciences. Test substances were dissolved in DMSO at concentrations of 1.0, 0.1, and 0.01 mg/mL. All strains were grown on trypticase-soy agar TSA (BBL) at 37 °C. […] After incubation of the dishes at 37 °C for 24 h (for bacteria) and 48 h (for the fungus) at 28 °C, the diameters of the growth inhibition zones of pathogenic microorganisms (mm) were measured, including the diameter of the wells. Commercial antibacterial drugs (vancomicin and gentamicin) and antifungal (clotrimazol) drugs were used as positive controls.

[3] = tested on: human cervical cancer (HeLa); assay: Cytotoxicity, MTT assay, HeLa cells; details: for EC50: Homo sapiens, HeLa, 24 h, read-out: Cytotoxicity (EC50), HeLa; for Selectivity Index (SI), HeLa: SI = EC50 (Jb6 Cl 41-5a normal cells)/EC50 (tumor cells)
E. coli K-12 = assay: Agar diffusion method, E. coli; assay type: cell-based, Escherichia coli; details: Escherichia coli, K12; 100 µg/well; read-out: Diameter of Zone Inhibition, E. coli
Experimental: as §1

C. albicans KMM 453 = assay: Agar diffusion method, C. albicans; assay type: cell-based; details: Candida albicans, KMM453, 48 h, 100 µg/well, 48 h at 28 °C; read-out: Diameter of Zone Inhibition, C. albicans
Experimental: as §1

P. aeruginosa ATCC 27853 = assay: Agar diffusion method, P. aeruginosa; assay type: cell-based, Pseudomonas aeruginosa; details: Pseudomonas aeruginosa, ATCC27853, 100 µg/well; read-out: Diameter of Zone Inhibition, P. aeruginosa
Experimental: as §1

S. aureus ATCC 21027 [4] = assay: Agar diffusion method, S. aureus; assay type: cell-based, Staphylococcus aureus; design: key to Diameter of Zone Inhibition, S. aureus: Zones within 20–40 mm mean strong antibiotic activity; zones up to 20 mm—moderate; ≤10 mm—weak; +—insignificant; details: for zone of inhibition at 100 µg/disc / zone of inhibition at 1 µg/disc: Staphylococcus aureus, read-out: Diameter of Zone Inhibition, S. aureus; for zone of inhibition at 100 µg/disc: ATCC21027, 24 h, 100 µg/well, 24 h, incl. 7 mm well; for zone of inhibition at 1 µg/disc: ATCC21027, 1 µg/well
Experimental: as §1

[5] = tested on: mouse ascites Ehrlich carcinoma; assay: Cytotoxicity, nonspecific esterase (FDA) assay, ascites Ehrlich carcinoma cells; details: for EC50: Mus musculus, Ehrlich, 24 h, read-out: Cytotoxicity (EC50), Ascites Ehrlich Carcinoma; for Selectivity Index (SI), Ascitic Ehrlich Carcinoma: SI = EC50 (Jb6 Cl 41-5a normal cells)/EC50 (tumor cells)
[6] = Cytotoxicity, statements of the text over all tested cell lines; details: human, mouse
[7] = tested on: Gram-positive bacteria (S. aureus, B. cereus); assay: Agar diffusion method, Gram-positive strains; assay type: cell-based, Staphylococcus aureus, Bacillus cereus; details: for zone of inhibition at 100 µg/disc: Staphylococcus aureus, 100 µg/well, read-out: Antimicrobial activity / inhibition zone diameter, Gram-positive bacteria; for Antimicrobial activity / inhibition zone diameter, Gram-positive bacteria: 10 µg/well; for Antimicrobial activity, Gram-positive strains: dilution to 1 µg/well
Experimental: as §1

S. aureus ATCC 21027 [8] = assay: Minimum inhibitory concentration, broth microdilution; assay type: cell-based, Staphylococcus aureus; details: for Selectivity index (SI) against S. aureus: SI = EC50 (normal Jb6 Cl 41-5a cells)/MIC; for MIC: Staphylococcus aureus, ATCC21027, broth microdilution, 24 h, read-out: Minimum inhibitory concentration (MIC) against S. aureus
Experimental: Stocks of substances were prepared in DMSO at a concentration of 10 mM. All studied compounds were tested in concentrations from 1.5 μM to 100 μM using twofold dilution. All tested compounds were add to the wells of the plates in a volume of 20 μL diluted in PBS (DMSO concentration < 1%). The bacterial culture of S. aureus ATCC 21027 (Collection of Marine Microorganisms PIBOC FEB RAS) was cultured in a Petri dish at 37 °C for 24 h on solid medium with the following composition; pepton—5.0 g/L, K2HPO4—0.2 g/L, glucose—1.0 g/L, MgSO4—0.05 g/L, yeast extract—1 g/L, agar—16.0 g/L, and distilled water—1.0 L. The pH of the medium was adjusted to 7.2–7.4 with NaOH solution.
The antimicrobial activity of the compounds was determined by the minimum inhibitory concentration (MIC) according to the method adopted by the Clinical and Laboratory Standards Institute (CLSI). Methods for dilution antimicrobial susceptibility tests for bacteria that grow aerobically followed the approved standard—tenth edition. CLSI document M07-A10, PA: Clinical and Laboratory Standards Institute; 2015, with a slight modification of the medium. The assays were performed in 96-well microplates in appropriate broth (pepton—5.0 g/L, K2HPO4—0.2 g/L, glucose—1.0 g/L, MgSO4—0.05 g/L, yeast extract—1 g/L, casein hydrolyzate—2.5 g/L, distilled water—1L). […] The MIC value is defined as the lowest concentration of compounds resulting in the complete inhibition of bacterial growth by measuring the absorbance at 600 nm with a microplate reader (BioTek, Winooski, Vt, USA). All experiments were performed twice in triplicate. Gentamicin was used as a positive control in concentration 1 mg/mL; 1% DMSO solution in PBS as a negative. The selectivity index for S. aureus has been defined as the ratio of EC50 for normal cells and the MIC value for the bacterial culture (SI = EC50/MIC).

| SMILES | EC50 at 24 h [1] | EC50 [2] | Selectivity Index (SI), Neuro-2a [2] | zone of inhibition at 100 µg/disc (B. cereus ATCC 10702) | EC50 [3] | Selectivity Index (SI), HeLa [3] | zone of inhibition at 100 µg/disc (E. coli K-12) | zone of inhibition at 100 µg/disc (C. albicans KMM 453) | zone of inhibition at 100 µg/disc (P. aeruginosa ATCC 27853) | zone of inhibition at 100 µg/disc (S. aureus ATCC 21027 [4]) | EC50 [5] | Selectivity Index (SI), Ascitic Ehrlich Carcinoma [5] | melting point | Selectivity index (SI) against S. aureus (S. aureus ATCC 21027 [8]) | MIC (S. aureus ATCC 21027 [8]) | zone of inhibition at 1 µg/disc (S. aureus ATCC 21027 [4]) | further results |
| --- | --- | --- | --- | --- | --- | --- | --- | --- | --- | --- | --- | --- | --- | --- | --- | --- | --- |
| O=C1C2=C(S[C@@H]3O[C@H](CO)[C@@H](O)[C@H](O)[C@H]3O2)C(=O)c2c(O)cccc21 [Compound 19a, (2R,3S,4S,4aR,12aS)-3,4,10-Trihydroxy-2-hydroxymethyl-3,4,4a,12a-tetrahydro-2H-naphtho[2,3-b]pyrano[2,3-e][2,5]oxathiine-6,11-dione] | 5600 nM | 4100 nM | 1.4 | 0 mm | 3700 nM | 1.5 | 0 mm | 0 mm | 0 mm | 0 mm | 600 nM | 9.3 | – | – | – | – | EC50 at 24 h [6]: 600 to 900 nM |
| O=C1C2=C(S[C@@H]3O[C@H](CO)[C@H](O)[C@H](O)[C@H]3O2)C(=O)c2c(O)cccc21 [Compound 19b, (2R,3R,4S,4aR,12aS)-3,4,10-Trihydroxy-2-hydroxymethyl-3,4,4a,12a-tetrahydro-2H-naphtho[2,3-b]pyrano-[2,3-e][2,5]oxathiine-6,11-dione] | 900 nM | 2300 nM | 0.4 | 8 ± 2 mm | 2700 nM | 0.3 | 0 mm | 0 mm | 0 mm | 0 mm | 700 nM | 1.3 | – | – | – | – | zone of inhibition at 100 µg/disc [7]: ≤ 10 mm; EC50 at 24 h [6]: 600 to 900 nM |
| O=C1C2=C(S[C@@H]3OC[C@H](O)[C@H](O)[C@H]3O2)C(=O)c2c(O)cccc21 [Compound 19d, (3S,4S,4aR,12aS)-3,4,10-Trihydroxy-3,4,4a,12a-tetrahydro-2H-naphtho[2,3-b]pyrano[2,3-e][2,5]oxathiine-6,11-dione] | 2300 nM | 2200 nM | 1 | 25 ± 2 mm | 1300 nM | 1.8 | 0 mm | 0 mm | 0 mm | 20 ± 3 mm | 1100 nM | 2.1 | 319 to 321 °C | 0.4 | 6.25 µM (≈ 2.1 µg/mL) | – | zone of inhibition at 100 µg/disc [7]: 20 to 40 mm |
| O=C1C2=C(O[C@@H]3[C@@H](O)[C@H](O)[C@@H](CO)O[C@H]3S2)C(=O)c2c(O)cccc21 [Compound 20a, (2R,3S,4S,4aR,12aS)-3,4,7-Trihydroxy-2-(hydroxymethyl)-3,4,4a,12a-tetrahydro-2H-naphtho[2,3-b]pyrano-[2,3-e][2,5]oxathiine-6,11-dione] | 700 nM | 700 nM | 1 | 22 ± 1 mm | 6300 nM | 0.1 | 0 mm | 0 mm | 0 mm | 30 ± 2 mm | 2700 nM | 0.3 | 274 to 276 °C | – | 25 µM (≈ 9.16 µg/mL) | 0 mm | zone of inhibition at 1 µg/disc (B. cereus ATCC 10702): 0 mm |
| O=C1C2=C(O[C@@H]3[C@@H](O)[C@@H](O)[C@@H](CO)O[C@H]3S2)C(=O)c2c(O)cccc21 [Compound 20b, (2R,3R,4S,4aR,12aS)-3,4,7-Trihydroxy-2-hydroxymethyl-3,4,4a,12a-tetrahydro-2H-naphtho[2,3-b]pyrano[2,3-e][2,5]oxathiine-6,11-dione] | 500 nM | 1200 nM | 0.4 | 20 ± 1 mm | 4700 nM | 0.1 | 0 mm | 0 mm | 0 mm | 30 ± 2 mm | 1100 nM | 0.5 | 293 to 295 °C | – | 25 µM (≈ 9.16 µg/mL) | 0 mm | zone of inhibition at 1 µg/disc (B. cereus ATCC 10702): 0 mm |
| O=C1C2=C(O[C@@H]3[C@@H](O)[C@H](O)CO[C@H]3S2)C(=O)c2c(O)cccc21 [Compound 20c, (3R,4S,4aR,12aS)-3,4,7-Trihydroxy-3,4,4a,12a-tetrahydro-2H-naphtho[2,3-b]pyrano[2,3-e][2,5]oxathiine-6,11-dione] | 300 nM | 2200 nM | 0.1 | 25 ± 1 mm | 2300 nM | 0.1 | 0 mm | 8 ± 1 mm | 0 mm | 30 ± 2 mm | 700 nM | 0.4 | – | 0.02 | 12.5 µM (≈ 4.2 µg/mL) | – | Diameter of Zone Inhibition, B. cereus (B. cereus ATCC 10702): +; Antimicrobial activity / inhibition zone diameter, Gram-positive bacteria [7]: comparable with antibiotics vancomicin and gentamicin; Antimicrobial activity, Gram-positive strains [7]: residual effect; Diameter of Zone Inhibition, S. aureus (S. aureus ATCC 21027 [4]; 1 µg/well): + |
| O=C1C2=C(O[C@@H]3[C@@H](O)[C@@H](O)CO[C@H]3S2)C(=O)c2c(O)cccc21 [Compound 20d, (3S,4S,4aR,12aS)-3,4,7-Trihydroxy-3,4,4a,12a-tetrahydro-2H-naphtho[2,3-b]pyrano[2,3-e][2,5]oxathiine-6,11-dione] | 700 nM | 1400 nM | 0.5 | 30 ± 3 mm | 400 nM | 1.75 | 0 mm | 0 mm | 0 mm | 40 ± 2 mm | 1200 nM | 0.6 | – | 0.1 | 6.25 µM (≈ 2.1 µg/mL) | 0 mm | Diameter of Zone Inhibition, B. cereus (B. cereus ATCC 10702): +; Antimicrobial activity / inhibition zone diameter, Gram-positive bacteria [7]: comparable with antibiotics vancomicin and gentamicin; Antimicrobial activity, Gram-positive strains [7]: residual effect |

Source: PMC7463537, “Synthesis and Evaluation of Antimicrobial and Cytotoxic Activity of Oxathiine-Fused Quinone-Thioglucoside Conjugates of Substituted 1,4-Naphthoquinones” (Molecules, 2020)
